Measured values: patent publication US12303592B2, “Formulations for parenteral delivery of compounds and uses thereof” (Wyeth, LLC, priority 2006, dated 2025)

Columns and labels:
[1] = white crystalline powder from Mallinckrodt; cited from earlier work
[2] = Effect of 1 mM sodium tungstate on subcutaneous formulation (Table 16), HPLC Method A; assay type: physicochemical; for Ring Contraction Degradant: key: BRL=below recordable limit
[3] = Buffer compatibility: stability of MNTX in pH 7 phosphate or glycine solution (Tables 9, 10), HPLC Method A; assay type: physicochemical
Source text: Evaluation of phosphate buffers solution stability. We have also assessed different buffers to determine compatibility and whether various conditions would convey further stability to methylnaltrexone solutions. Table 9 and Table 10 show results (HPLC Method A) of total degradant formation over time in methylnaltrexone solutions prepared in phosphate solution (Table 9), and glycine solution (Table 10). We found at pH 7, glycine provides better stability characteristics to samples than phosphate.

For `C[N+]1(CC2CC2)CC[C@]23c4c5ccc(O)c4O[C@H]2C(=O)CC[C@@]3(O)[C@H]1C5` (stereo partly shown) [MNTX, methylnaltrexone bromide], the solubility in water [1] is given as “freely soluble in water”, the “7-Dihydroxy MNTX” value ([2]; 40° C., 1 hour) is given as “BRL” and the “O-Methyl MNTX” value ([2]; 40° C., 1 hour) is given as 0.12. For the same molecule, the “Ring Contraction Degradant” value ([2]; 40° C., 1 hour) was “BRL”, the Total ([2]; 40° C., 1 hour) was 0.12 and the “7-Dihydroxy MNTX” value ([2]; 40° C., 2 hours) was 0.02. The “O-Methyl MNTX” value ([2]; 40° C., 2 hours) was 0.12, the “Ring Contraction Degradant” value ([2]; 40° C., 2 hours) was “BRL” and the Total ([2]; 40° C., 2 hours) was 0.14. The “7-Dihydroxy MNTX” value ([2]; 40° C., 3 hours) was 0.02, the “O-Methyl MNTX” value ([2]; 40° C., 3 hours) was 0.12 and the “Ring Contraction Degradant” value ([2]; 40° C., 3 hours) was “BRL”. For the same molecule, the Total ([2]; 40° C., 3 hours) was 0.14, the “7-Dihydroxy MNTX” value ([2]; 40° C., 4 hours) was 0.02 and the “O-Methyl MNTX” value ([2]; 40° C., 4 hours) was 0.12. The “Ring Contraction Degradant” value ([2]; 40° C., 4 hours) was “BRL”, the Total ([2]; 40° C., 4 hours) was 0.14 and the “7-Dihydroxy MNTX” value ([2]; 40° C., 5 hours) was 0.03. The “O-Methyl MNTX” value ([2]; 40° C., 5 hours) was 0.12, the “Ring Contraction Degradant” value ([2]; 40° C., 5 hours) was “BRL” and the Total ([2]; 40° C., 5 hours) was 0.15. The “7-Dihydroxy MNTX” value ([2]; 40° C., Initial) was “BRL”, the “O-Methyl MNTX” value ([2]; 40° C., Initial) was 0.12 and the “Ring Contraction Degradant” value ([2]; 40° C., Initial) was “BRL”. The Total ([2]; 40° C., Initial) was 0.12, the “7-Dihydroxy MNTX” value ([2]; Room Temperature, 1 hour) was “BRL” and the “O-Methyl MNTX” value ([2]; Room Temperature, 1 hour) was 0.12. For the same molecule, the “Ring Contraction Degradant” value ([2]; Room Temperature, 1 hour) was “BRL”, the Total ([2]; Room Temperature, 1 hour) was 0.12 and the “7-Dihydroxy MNTX” value ([2]; Room Temperature, 2 hours) was 0.02. For the same molecule, the “O-Methyl MNTX” value ([2]; Room Temperature, 2 hours) was 0.12, the “Ring Contraction Degradant” value ([2]; Room Temperature, 2 hours) was “BRL” and the Total ([2]; Room Temperature, 2 hours) was 0.14. The “7-Dihydroxy MNTX” value ([2]; Room Temperature, 3 hours) was 0.02, the “O-Methyl MNTX” value ([2]; Room Temperature, 3 hours) was 0.12 and the “Ring Contraction Degradant” value ([2]; Room Temperature, 3 hours) was “BRL”. For the same molecule, the Total ([2]; Room Temperature, 3 hours) was 0.14, the “7-Dihydroxy MNTX” value ([2]; Room Temperature, 4 hours) was 0.02 and the “O-Methyl MNTX” value ([2]; Room Temperature, 4 hours) was 0.12. The “Ring Contraction Degradant” value ([2]; Room Temperature, 4 hours) was “BRL”, the Total ([2]; Room Temperature, 4 hours) was 0.14 and the “7-Dihydroxy MNTX” value ([2]; Room Temperature, 5 hours) was 0.02. The “O-Methyl MNTX” value ([2]; Room Temperature, 5 hours) was 0.12, the “Ring Contraction Degradant” value ([2]; Room Temperature, 5 hours) was “BRL” and the Total ([2]; Room Temperature, 5 hours) was 0.14. For the same molecule, the “7-Dihydroxy MNTX” value ([2]; Room Temperature, Initial) was “BRL”, the “O-Methyl MNTX” value ([2]; Room Temperature, Initial) was 0.12 and the “Ring Contraction Degradant” value ([2]; Room Temperature, Initial) was “BRL”. For the same molecule, the Total ([2]; Room Temperature, Initial) was 0.12, the “Appearance and Description” value ([3]; pH 7, 0.02M Glycine Solution, 40° C., r24 0 time, r26 1 day, r28 2 days, r30 6 days, r32 9 days, r34 14 days, r36 21 days) was “Clear, colorless” and the “Appearance and Description” value ([3]; pH 7, 0.02M Glycine Solution, Room Temperature, r8 0 time, r11 1 day, r13 2 days, r15 6 days, r18 9 days, r20 14 days, r22 21 days) was “Clear, colorless”. For the same molecule, the “Appearance and Description” value ([3]; pH 7, 0.02M Phosphate Solution, 40° C., r22 0 time, r24 1 day, r26 2 days, r28 6 days, r30 9 days, r32 14 days, r35 21 days, elapsed 0 time) was “Clear, colorless”, the “Appearance and Description” value ([3]; pH 7, 0.02M Phosphate Solution, 60° C., r38 0 time, r40 1 day, r42 2 days, r44 6 days, r46 9 days, r48 14 days, r50 21 days, elapsed 0 time) was “Clear, colorless” and the “Appearance and Description” value ([3]; pH 7, 0.02M Phosphate Solution, 60° C., r38 0 time, r40 1 day, r42 2 days, r44 6 days, r46 9 days, r48 14 days, r50 21 days, elapsed 9 days) was “Clear, yellow”. For the same molecule, the “Appearance and Description” value ([3]; pH 7, 0.02M Phosphate Solution, Room Temperature, r8 0 time, r10 1 day, r12 2 days, r14 6 days, r16 9 days, r18 14 days, r20 21 days) was “Clear, colorless”.
